# Target: C-Raf FL (full length CRAF with Y340E and Y341E activating mutations, co-expressed with h14-3-3 zeta) (Homo sapiens (Human), UniProt P04049, Y340E/Y341E)
# Experiment: In vitro Raf activity determination, AlphaScreen p-MEK readout, c-Raf (C-Raf FL)
# Format: biochemical
# Details: c-Raf approximately 4 nM, ATP 1 μM, pre-incubation 60 minutes, reaction 1 hour
# Summary of the method: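 Phosphorylation of kinase-dead biotinylated MEK1 (~10 nM) by C-Raf FL (~4 nM) read by AlphaScreen luminescence with anti-phospho-MEK1/2 after EDTA stop. ATP was 1 μM, with a 1 h reaction at room temperature. Compounds were pre-incubated with enzyme and substrate for 60 min in Tris/MgCl2 buffer, pH 7.5.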
# C-Raf FL (full length CRAF with Y340E and Y341E activating mutations, co-expressed with h14-3-3 zeta), sequence (P04049 whole entry Y340E/Y341E): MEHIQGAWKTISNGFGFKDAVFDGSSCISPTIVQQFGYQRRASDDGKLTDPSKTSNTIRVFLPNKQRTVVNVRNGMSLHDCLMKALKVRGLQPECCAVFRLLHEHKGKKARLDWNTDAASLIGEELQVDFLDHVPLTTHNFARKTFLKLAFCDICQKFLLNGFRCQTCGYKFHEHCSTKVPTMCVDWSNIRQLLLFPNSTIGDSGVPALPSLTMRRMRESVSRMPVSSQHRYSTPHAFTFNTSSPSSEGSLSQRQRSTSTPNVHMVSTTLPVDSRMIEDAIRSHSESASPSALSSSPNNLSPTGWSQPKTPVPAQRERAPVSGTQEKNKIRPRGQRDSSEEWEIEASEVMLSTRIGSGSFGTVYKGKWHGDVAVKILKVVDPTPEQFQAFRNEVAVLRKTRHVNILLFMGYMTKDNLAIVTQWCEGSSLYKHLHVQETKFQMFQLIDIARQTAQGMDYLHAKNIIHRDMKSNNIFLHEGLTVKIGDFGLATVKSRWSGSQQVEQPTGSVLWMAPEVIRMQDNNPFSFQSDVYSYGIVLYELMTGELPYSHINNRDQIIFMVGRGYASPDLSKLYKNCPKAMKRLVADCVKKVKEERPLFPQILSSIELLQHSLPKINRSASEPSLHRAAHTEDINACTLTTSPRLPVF
# C-Raf FL (full length CRAF with Y340E and Y341E activating mutations, co-expressed with h14-3-3 zeta), sequence (P63104 whole entry partner): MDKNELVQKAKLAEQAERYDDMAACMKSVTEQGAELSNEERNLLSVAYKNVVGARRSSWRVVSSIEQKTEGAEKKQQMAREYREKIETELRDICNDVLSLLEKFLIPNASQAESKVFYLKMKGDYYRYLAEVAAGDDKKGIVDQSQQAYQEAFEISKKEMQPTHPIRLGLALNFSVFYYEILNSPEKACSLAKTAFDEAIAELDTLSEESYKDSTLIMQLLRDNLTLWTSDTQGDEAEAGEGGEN
row,SMILES,IC50 [nM]
1,"Cc1ncc(NC(=O)c2ccnc(C(F)(F)F)c2)cc1-c1ccc2c(c1)N1CCOCC[C@H]1C[C@H]2O [Example 442, N-(5-((5aS,7R)-7-hydroxy-1,2,5,5a,6,7-hexahydro-4H-[1,4]oxazepino [4,5-a]quinolin-10-yl)-6-methylpyridin-3-yl)-2-(trifluoromethyl) isonicotinamide]",0.7
2,"Cc1ncc(NC(=O)c2ccnc(C(F)(F)F)c2)cc1-c1ccc2c(c1)N1CCOCC[C@H]1C[C@@H]2O [Example 443, N-(5-((5aS,7S)-7-hydroxy-1,2,5,5a,6,7-hexahydro-4H-[1,4]oxazepino [4,5-a]quinolin-10-yl)-6-methylpyridin-3-yl)-2-(trifluoromethyl) isonicotinamide]",0.6
3,Cc1ncc(NC(=O)c2ccnc(C(C)(C)F)c2)cc1-c1ccc2c(c1)N1CCOCC[C@H]1C[C@H]2O [Example 444],0.4
4,"Cc1ncc(NC(=O)c2ccnc(C(C)(C)F)c2)cc1-c1ccc2c(c1)N1CCOCC[C@H]1C[C@@H]2O [Example 445, 2-(2-fluoropropan-2-yl)-N-(5-((5aS,7S)-7-hydroxy-1,2,5,5a,6,7-hexahydro-4H-[1,4]oxazepino [4,5-a]quinolin-10-yl)-6-methylpyridin-3-yl)isonicotinamide]",0.7
5,"Cc1ncc(NC(=O)c2cccc(C(F)(F)F)c2)cc1-c1ccc2c(c1)N1CCOCC[C@H]1C[C@H]2O [Example 446, N-(5-((5aS,7R)-7-hydroxy-1,2,5,5a,6,7-hexahydro-4H-[1,4]oxazepino [4,5-a]quinolin-10-yl)-6-methylpyridin-3-yl)-3-(trifluoro-methyl)benzamide]",0.7
6,"Cc1ncc(NC(=O)c2cccc(C(F)(F)F)c2)cc1-c1ccc2c(c1)N1CCOCC[C@H]1C[C@@H]2O [Example 447, N-(5-((5aS,7S)-7-hydroxy-1,2,5,5a,6,7-hexahydro-4H-[1,4]oxazepino [4,5-a]quinolin-10-yl)-6-methylpyridin-3-yl)-3-(trifluoro-methyl)benzamide]",0.5
7,"Cc1ccc(NC(=O)c2ccnc(C(F)(F)F)c2)cc1-c1cnc2c(c1)N1CCOC[C@@H]1[C@H](C(C)(C)O)C2 [Example 448, N-(3-((4aS,5R)-5-(2-hydroxypropan-2-yl)-1,2,4,4a,5,6-hexahydro-[1,4]oxazino[4,3-a][1,5]naphthyridin-9-yl)-4-methylphenyl)-2-(trifluoromethyl)isonicotinamide]",0.2
8,"Cc1ncc(NC(=O)c2cccc(C(F)(F)F)c2)cc1-c1cnc2c(c1)N1CCOC[C@@H]1[C@H](C(C)(C)O)C2 [Example 449, N-(5-((4aS,5R)-5-(2-hydroxypropan-2-yl)-1,2,4,4a,5,6-hexahydro-[1,4]oxazino[4,3-a] [1,5]naphthyridin-9-yl)-6-methylpyridin-3-yl)-3-(trifluoro-methyl)benzamide]",0.7
9,"Cc1ccc(NC(=O)c2ccnc(C(C)(F)F)c2)cc1-c1cnc2c(c1)N1CCOC[C@@H]1[C@H](C(C)(C)O)C2 [Example 450, 2-(1,1-difluoroethyl)-N-(3-((4aS,5R)-5-(2-hydroxypropan-2-yl)-1,2,4,4a,5,6-hexahydro-[1,4]oxazino[4,3-a][1,5]naphthyridin-9-yl)-4-methylphenyl) isonicotinamide]",0.2
10,"Cc1ccc(NC(=O)c2ccnc(C(F)(F)F)c2)cc1-c1cnc2c(c1)N1CCOC[C@H]1[C@@H](C(C)(C)O)C2 [Example 451, N-(3-((4aR,5S)-5-(2-hydroxypropan-2-yl)-1,2,4,4a,5,6-hexahydro-[1,4]oxazino[4,3-a][1,5]naphthyridin-9-yl)-4-methylphenyl)-2-(trifluoromethyl) isonicotinamide]",0.6
11,"Cc1ncc(NC(=O)c2cccc(C(F)(F)F)c2)cc1-c1cnc2c(c1)N1CCOC[C@H]1[C@@H](C(C)(C)O)C2 [Example 452, N-(5-((4aR,5S)-5-(2-hydroxypropan-2-yl)-1,2,4,4a,5,6-hexahydro-[1,4]oxazino[4,3-a][1,5]naphthyridin-9-yl)-6-methylpyridin-3-yl)-3-(trifluoro-methyl)benzamide]",0.5
